Where no end group is shown, it is not given here.
Molecular target: T1, XPS1 ectodomain (Arabidopsis thaliana, UniProt Q9SD62)
T1 construct: The extracellular domain of XPS1 (amino acids 36-650) was cloned by ligation independent cloning; made in house; host or cells: Hi5 insect cells, baculovirus (pMelBac B)
T1 sequence (Q9SD62 36-650): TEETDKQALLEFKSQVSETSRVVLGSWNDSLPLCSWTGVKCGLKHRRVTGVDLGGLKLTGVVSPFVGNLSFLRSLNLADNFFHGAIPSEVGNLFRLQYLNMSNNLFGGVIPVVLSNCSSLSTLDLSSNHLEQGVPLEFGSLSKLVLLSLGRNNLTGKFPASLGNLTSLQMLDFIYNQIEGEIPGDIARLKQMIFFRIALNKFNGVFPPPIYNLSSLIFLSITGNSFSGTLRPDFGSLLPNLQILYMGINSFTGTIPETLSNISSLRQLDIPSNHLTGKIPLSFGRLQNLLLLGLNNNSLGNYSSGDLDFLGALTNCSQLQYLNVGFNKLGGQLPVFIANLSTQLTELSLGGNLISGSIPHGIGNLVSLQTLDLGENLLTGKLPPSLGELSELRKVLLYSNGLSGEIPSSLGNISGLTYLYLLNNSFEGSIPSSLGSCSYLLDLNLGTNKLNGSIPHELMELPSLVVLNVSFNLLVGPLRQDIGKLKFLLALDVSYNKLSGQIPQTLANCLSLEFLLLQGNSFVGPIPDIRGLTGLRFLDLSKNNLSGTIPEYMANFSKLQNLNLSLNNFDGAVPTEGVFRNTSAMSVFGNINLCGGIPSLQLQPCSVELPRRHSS
Assay: biochemical
Type: binding
Procedure: For XPS1 expression in Hi5 cells, the ectodomain of XPS1 (36-650) was inserted into the baculovirus transfer vector pMelBac B (Invitrogen). The extracellular domain of XPS1 (amino acids 36-650) was cloned by ligation independent cloning between the existing Honey bee melettin signal sequence and the C-terminal Strep II-9x His tag. […] The StrepII-9x His fused XPS1 ectodomain was produced by secreted expression in baculovirus-infected insect cells, harvested 72 h post infection and purified by Ni-NTA affinity chromatography (Qiagen). The samples were processed twice with a Superdex 200 16/60 column (GE Healthcare) pre-equilibrated with 10 mM Bis-Tris pH 6.0, 150 mM NaCl. Protein purity was checked by SDS-PAGE.
The XPS1 ectodomain was kept at a constant concentration (0.5 μM) in a buffer containing 10 mM Bis-Tris pH6, 150 mM NaCl, 5 % glycerol and 0.01 % Tween, whereas varying peptide concentrations were added. Approximately 4–6 μL of each sample was loaded in a fused silica capillary (NanoTemper Technologies). Measurements were performed at room temperature in a Monolith NT.label free instrument at a constant LED power of 20 and MST power of 60 %. Measurements were performed repeatedly on two independent protein preparations to ensure reproducibility. […] Curve fitting was performed by using the NT affinity analysis software from Nanotemper.

Row | Sequence | Apparent EC50 range of XPS1 for peptide | EC50 | Overall KD of XPS1 binding | EC50 of binding to XPS1 ECD (additional replicate (Figure S7), XPS1 ECD 0.5 μM, pH6, MST power 60 %, NT affinity analysis) | Kd (read-out: KD of binding to XPS1 ECD)
1 | LIPEGKVAVTTTQAATERKPLEQPR [xup25] | in the high nM range | 0.381 µM | not able to calculate an accurate overall KD | – | –
2 | QRLSTGSRINSAKDDAAGLQIA [flg22, reference compound] | – | – | – | could not be fitted using the EC50 fit | 13.1 µM
